Structures can show the parent of a compound that is named as a salt.
Legend:
[1] = in vitro; conditions: human, CC50 (μM) AlamarBlue assay
[2] = target: LCMV MG (Lymphocytic choriomeningitis virus, UniProt P09992+P14240); format: cell-based
[3] = tested on: LCMV/vRNP cells (HEK293T)
[4] = tested on: rLCMV/GFP; test: microbe, parasite or virus in culture; format: cell-based

Chain of LCMV MG (P09992 whole entry, looked up): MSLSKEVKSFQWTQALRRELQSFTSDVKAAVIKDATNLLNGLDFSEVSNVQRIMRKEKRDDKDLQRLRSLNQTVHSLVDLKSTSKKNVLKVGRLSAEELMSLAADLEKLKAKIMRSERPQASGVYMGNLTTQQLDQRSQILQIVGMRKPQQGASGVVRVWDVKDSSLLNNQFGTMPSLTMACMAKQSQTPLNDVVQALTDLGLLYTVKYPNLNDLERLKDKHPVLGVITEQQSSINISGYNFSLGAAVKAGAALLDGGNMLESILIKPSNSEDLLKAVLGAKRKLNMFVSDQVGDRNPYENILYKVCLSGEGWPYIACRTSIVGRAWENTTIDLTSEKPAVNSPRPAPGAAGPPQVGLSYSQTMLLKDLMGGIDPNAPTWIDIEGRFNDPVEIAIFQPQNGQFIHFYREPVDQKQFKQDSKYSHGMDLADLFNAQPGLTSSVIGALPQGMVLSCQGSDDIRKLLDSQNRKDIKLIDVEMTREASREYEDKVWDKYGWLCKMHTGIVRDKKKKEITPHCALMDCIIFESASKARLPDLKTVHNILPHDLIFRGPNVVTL
Chain of LCMV MG (P14240 whole entry, looked up): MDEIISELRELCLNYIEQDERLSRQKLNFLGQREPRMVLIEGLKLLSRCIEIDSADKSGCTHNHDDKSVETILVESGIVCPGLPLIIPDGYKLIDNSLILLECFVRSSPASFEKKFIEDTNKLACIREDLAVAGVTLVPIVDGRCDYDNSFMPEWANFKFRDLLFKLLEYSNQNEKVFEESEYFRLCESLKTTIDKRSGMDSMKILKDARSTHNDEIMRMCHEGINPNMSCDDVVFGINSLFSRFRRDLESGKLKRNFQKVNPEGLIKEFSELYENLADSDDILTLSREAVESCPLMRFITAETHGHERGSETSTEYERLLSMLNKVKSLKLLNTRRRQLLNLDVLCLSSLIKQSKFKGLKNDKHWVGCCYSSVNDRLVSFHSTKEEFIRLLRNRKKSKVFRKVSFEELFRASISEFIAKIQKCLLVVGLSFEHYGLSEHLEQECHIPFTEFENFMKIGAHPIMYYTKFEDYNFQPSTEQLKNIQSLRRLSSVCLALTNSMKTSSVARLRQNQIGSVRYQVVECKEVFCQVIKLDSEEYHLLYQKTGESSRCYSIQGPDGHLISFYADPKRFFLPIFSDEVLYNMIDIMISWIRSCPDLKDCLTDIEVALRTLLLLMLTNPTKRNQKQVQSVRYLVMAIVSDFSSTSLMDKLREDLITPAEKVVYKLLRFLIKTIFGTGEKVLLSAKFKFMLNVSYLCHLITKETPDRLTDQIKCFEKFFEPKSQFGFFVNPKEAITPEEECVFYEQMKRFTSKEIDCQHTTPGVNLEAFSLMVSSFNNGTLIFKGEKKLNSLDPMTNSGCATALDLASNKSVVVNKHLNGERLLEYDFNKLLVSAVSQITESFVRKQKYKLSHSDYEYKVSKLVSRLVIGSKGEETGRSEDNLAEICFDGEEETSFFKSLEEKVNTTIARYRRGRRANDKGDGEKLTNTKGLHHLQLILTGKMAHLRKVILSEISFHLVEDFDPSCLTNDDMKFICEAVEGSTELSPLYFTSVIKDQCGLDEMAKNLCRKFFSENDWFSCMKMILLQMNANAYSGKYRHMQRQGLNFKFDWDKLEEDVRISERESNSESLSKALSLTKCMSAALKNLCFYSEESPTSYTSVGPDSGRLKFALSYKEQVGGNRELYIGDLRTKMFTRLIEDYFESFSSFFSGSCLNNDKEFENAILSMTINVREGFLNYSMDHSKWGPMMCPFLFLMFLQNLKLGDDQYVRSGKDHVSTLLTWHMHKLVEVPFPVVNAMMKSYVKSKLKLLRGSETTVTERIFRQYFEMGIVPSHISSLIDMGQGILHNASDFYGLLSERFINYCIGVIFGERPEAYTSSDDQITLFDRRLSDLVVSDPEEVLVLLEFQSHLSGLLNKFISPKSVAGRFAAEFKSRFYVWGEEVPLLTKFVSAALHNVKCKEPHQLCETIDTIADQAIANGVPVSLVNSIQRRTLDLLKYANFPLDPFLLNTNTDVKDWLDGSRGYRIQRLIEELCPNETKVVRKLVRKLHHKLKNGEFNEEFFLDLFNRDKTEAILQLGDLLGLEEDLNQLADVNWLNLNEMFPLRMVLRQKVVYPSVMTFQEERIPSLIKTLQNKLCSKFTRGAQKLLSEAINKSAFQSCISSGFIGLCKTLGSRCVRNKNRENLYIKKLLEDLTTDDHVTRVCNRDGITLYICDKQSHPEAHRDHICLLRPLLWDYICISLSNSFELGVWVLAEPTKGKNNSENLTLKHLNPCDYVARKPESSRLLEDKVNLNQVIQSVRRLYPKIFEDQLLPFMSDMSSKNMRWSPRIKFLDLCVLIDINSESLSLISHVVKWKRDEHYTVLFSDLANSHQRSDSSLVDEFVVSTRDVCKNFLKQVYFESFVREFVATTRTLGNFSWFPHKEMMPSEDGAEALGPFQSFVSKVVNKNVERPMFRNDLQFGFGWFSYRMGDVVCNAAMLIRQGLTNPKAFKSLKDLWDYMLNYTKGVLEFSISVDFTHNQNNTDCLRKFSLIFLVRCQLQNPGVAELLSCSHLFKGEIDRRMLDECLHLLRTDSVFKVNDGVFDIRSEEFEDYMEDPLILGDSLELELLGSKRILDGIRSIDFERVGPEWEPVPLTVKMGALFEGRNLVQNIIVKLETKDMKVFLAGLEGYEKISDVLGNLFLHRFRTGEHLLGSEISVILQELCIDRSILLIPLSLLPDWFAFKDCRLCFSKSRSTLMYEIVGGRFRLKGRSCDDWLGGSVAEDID

| Molecule | CC50 [1] | effect on LCMV MG activity (GFP expression) [2] | further results |
| --- | --- | --- | --- |
| S=C(NCc1ccc2c(c1)OCO2)N1CCN(c2ncnc3c2oc2ccccc23)CC1 [Amuvatinib] | 28 µM |  |  |
| CCCCCC[C@H]1C(=O)O[C@H](C)[C@H](NC(=O)c2cccc(NC=O)c2O)C(=O)O[C@@H](C)[C@@H]1OC(=O)CC(C)C [Antimycin A] |  | dose-dependent inhibitory effect |  |
| CO/C=C(/C(=O)OC)c1ccccc1Oc1cc(Oc2ccccc2C#N)ncn1 [Azoxystrobin] |  |  | CC50 [3]: 62.7 µM |
| COc1ccc(C(O)C(C)Oc2ccc(C3OC(c4ccc(OC(C)C(O)c5ccc(OC)c(OC)c5)c(OC)c4)C(C)C3C)cc2OC)cc1OC (stereo not shown) [Manassantin A] | 24.3 µM | dose-dependent inhibitory effect |  |
| CC[C@@]1([C@H]2O[C@H]([C@H]3O[C@@](O)(CO)[C@H](C)C[C@@H]3C)C[C@H]2C)CC[C@H]([C@@]2(C)CC[C@]3(C[C@H](O)[C@@H](C)[C@@H]([C@H](C)[C@H](OC)[C@@H](C)C(=O)O)O3)O2)O1 [Monensin sodium salt] |  |  | CC50 [3]: 5.95 µM |
| CC[C@@H](C(=O)O)[C@@H]1O[C@@H]([C@@H](C)[C@H](O)[C@H](C)C(=O)[C@H](CC)[C@H]2O[C@]3(C=C[C@@H](O)[C@]4(CC[C@@](C)([C@H]5CC[C@](O)(CC)[C@H](C)O5)O4)O3)[C@H](C)C[C@@H]2C)[C@@H](C)C[C@@H]1C [Narasin] | 4.44 µM | dose-dependent inhibitory effect |  |
| O=c1[nH]c2ccccc2n1C1CCN(CCCC(c2ccc(F)cc2)c2ccc(F)cc2)CC1 [Pimozide] |  | dose-dependent inhibitory effect |  |
| C=C(C)[C@H]1Cc2c(ccc3c2O[C@@H]2COc4cc(OC)c(OC)cc4[C@@H]2C3=O)O1 [Rotenone] |  |  | EC50 ([4]; Mammarenavirus choriomeningitidis, A549, 48 h): 660 nM |
| O=C1c2ccccc2-n2c1nc1ccccc1c2=O [Tryptanthrin] | 12.2 µM |  |  |
| CC(C)[C@@H]1NC(=O)[C@H](C)OC(=O)[C@@H](C(C)C)NC(=O)[C@@H](C(C)C)OC(=O)[C@H](C(C)C)NC(=O)[C@H](C)OC(=O)[C@@H](C(C)C)NC(=O)[C@@H](C(C)C)OC(=O)[C@H](C(C)C)NC(=O)[C@H](C)OC(=O)[C@@H](C(C)C)NC(=O)[C@@H](C(C)C)OC1=O [Valinomycin] | 1.93 µM |  |  |
| PF429242 |  |  | effect on multiplication of live LCMV (rLCMV/GFP) [4]: inhibited |

Reference: publication PMC6954049 (Antiviral Research, 2019)
